# Measured values from patent US7772241B2, “Variolin derivatives and their use as antitumor agents” (Pharma Mar S.A., priority 2001, dated 2010).
# Read-outs that look alike come from different tables or passages of the source.
# Tests used:
# PANC-1 = test: Inhibition of cells growth by colorimetric (SRB) assay, PANC-1
# Method in brief: (§1)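 Human tumour cells in RPMI 1640 with 10% FBS were seeded at 5×10^3 cells/well, allowed to attach for 18 h, then exposed to samples at 10 to 10^−8 μg/ml for 48 h. Growth was measured by SRB staining after TCA fixation, with absorbance read at 490 nm in triplicate wells.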
# LoVo = test: Inhibition of cells growth by colorimetric (SRB) assay, LoVo
# Method in brief: as §1
# K-562 = test: Inhibition of cells growth by colorimetric (SRB) assay, K-562
# Method in brief: as §1
# DU-145 = test: Inhibition of cells growth by colorimetric (SRB) assay, DU-145
# Method in brief: as §1
# HT-29 = test: Inhibition of cells growth by colorimetric (SRB) assay, HT-29
# Method in brief: as §1
# IGROV-ET = test: Inhibition of cells growth by colorimetric (SRB) assay, IGROV-ET
# Method in brief: as §1
# LoVo-Dox = test: Inhibition of cells growth by colorimetric (SRB) assay, LoVo-Dox
# Method in brief: as §1
# IGROV-1 = test: Inhibition of cells growth by colorimetric (SRB) assay, IGROV-1
# Method in brief: as §1
# A-549 = test: Inhibition of cells growth by colorimetric (SRB) assay, A-549
# Method in brief: as §1
# SK-BR-3 = test: Inhibition of cells growth by colorimetric (SRB) assay, SK-BR-3; conditions: for GI50 / CC50: Homo sapiens, SK-BR-3, 48 h
# Method in brief: as §1
# HeLa-APL = test: Inhibition of cells growth by colorimetric (SRB) assay, HeLa-APL; conditions: for GI50 / CC50: Homo sapiens, 48 h
# Method in brief: as §1
# HeLa = test: Inhibition of cells growth by colorimetric (SRB) assay, HeLa; conditions: for GI50: Homo sapiens, HeLa, 48 h; as to HELA TGI: unit not given here
# Method in brief: as §1
# LNCaP = test: Inhibition of cells growth by colorimetric (SRB) assay, LNCaP
# Method in brief: as §1
# SK-MEL-28 = test: Inhibition of cells growth by colorimetric (SRB) assay, SK-MEL-28
# Method in brief: as §1
compound,measurement,setting,value
COc1ccnc2c1c(-c1ccnc(N)n1)c1ccnc(N)n12.Cl [Compound 116],TGI PANC-1,"PANC-1; SRB assay, 48 hours exposure",1.29E−05
same,GI50,"PANC-1; read-out: GI50 PANC-1, SRB assay, 48 hours exposure",1790 nM
same,CC50,"PANC-1; read-out: LC50 PANC-1, SRB assay, 48 hours exposure",26300 nM
same,TGI LOVO,"LoVo; SRB assay, 48 hours exposure",1.22E−06
same,GI50,"LoVo; read-out: GI50 LOVO, SRB assay, 48 hours exposure",550 nM
same,CC50,"LoVo; read-out: LC50 LOVO, SRB assay, 48 hours exposure",26300 nM
same,TGI K-562,"K-562; SRB assay, 48 hours exposure",2.12E−05
same,GI50,"K-562; read-out: GI50 K-562, SRB assay, 48 hours exposure",2870 nM
same,CC50,"K-562; read-out: LC50 K-562, SRB assay, 48 hours exposure",26300 nM
same,TGI DU-145,"DU-145; SRB assay, 48 hours exposure",2.54E−06
same,GI50,"DU-145; read-out: GI50 DU-145, SRB assay, 48 hours exposure",1130 nM
same,CC50,"DU-145; read-out: LC50 DU-145, SRB assay, 48 hours exposure",26300 nM
same,TGI HT-29,"HT-29; SRB assay, 48 hours exposure",1.88E−05
same,GI50,"HT-29; read-out: GI50 HT-29, SRB assay, 48 hours exposure",6180 nM
same,CC50,"HT-29; read-out: LC50 HT-29, SRB assay, 48 hours exposure",26300 nM
same,TGI IGROV-ET,"IGROV-ET; SRB assay, 48 hours exposure",2.50E−06
same,GI50,"IGROV-ET; read-out: GI50 IGROV-ET, SRB assay, 48 hours exposure",1370 nM
same,CC50,"IGROV-ET; read-out: LC50 IGROV-ET, SRB assay, 48 hours exposure",26300 nM
same,TGI LOVO-DOX,"LoVo-Dox; SRB assay, 48 hours exposure",2.59E−06
same,GI50,"LoVo-Dox; read-out: GI50 LOVO-DOX, SRB assay, 48 hours exposure",1070 nM
same,CC50,"LoVo-Dox; read-out: LC50 LOVO-DOX, SRB assay, 48 hours exposure",26300 nM
same,TGI IGROV,"IGROV-1; SRB assay, 48 hours exposure",1.66E−06
same,GI50,"IGROV-1; read-out: GI50 IGROV, SRB assay, 48 hours exposure",934 nM
same,CC50,"IGROV-1; read-out: LC50 IGROV, SRB assay, 48 hours exposure",26300 nM
same,TGI A-549,"A-549; SRB assay, 48 hours exposure",7.68E−06
same,GI50,"A-549; read-out: GI50 A-549, SRB assay, 48 hours exposure",1150 nM
same,CC50,"A-549; read-out: LC50 A-549, SRB assay, 48 hours exposure",26300 nM
same,GI50,"SK-BR-3; read-out: GI50 SK-BR-3, SRB assay, 48 hours exposure",892 nM
same,CC50,"SK-BR-3; read-out: LC50 SK-BR-3, SRB assay, 48 hours exposure",3500 nM
same,TGI SK-BR-3,"SK-BR-3; SRB assay, 48 hours exposure",1.55E−06
same,GI50,"HeLa-APL; read-out: GI50 HELA-APL, SRB assay, 48 hours exposure",98.9 nM
same,CC50,"HeLa-APL; read-out: LC50 HELA-APL, SRB assay, 48 hours exposure",2300 nM
same,TGI HELA-APL,"HeLa-APL; SRB assay, 48 hours exposure",2.17E−07
same,GI50,"HeLa; read-out: GI50 HELA, SRB assay, 48 hours exposure",151 nM
same,TGI HELA,"HeLa; SRB assay, 48 hours exposure",5.26E−07
same,TGI LN-caP,"LNCaP; SRB assay, 48 hours exposure",1.21E−06
same,GI50,"LNCaP; read-out: GI50 LN-caP, SRB assay, 48 hours exposure",602 nM
same,CC50,"LNCaP; read-out: LC50 LN-caP, SRB assay, 48 hours exposure",2430 nM
same,TGI MEL-28,"SK-MEL-28; SRB assay, 48 hours exposure",2.11E−06
same,GI50,"SK-MEL-28; read-out: GI50 MEL-28, SRB assay, 48 hours exposure",1100 nM
same,CC50,"SK-MEL-28; read-out: LC50 MEL-28, SRB assay, 48 hours exposure",10400 nM
"Nc1nccc(-c2c3cccnc3n3c(N)nccc23)n1 [Deoxyvariolin 4, deoxyvariolin B, reference compound]",GI50,"PANC-1; Homo sapiens, PANC-1, 48 h, read-out: PANC-1 GI50, SRB assay, 48 hours exposure",162 nM
same,CC50,"PANC-1; Homo sapiens, PANC-1, 48 h, read-out: PANC-1 LC50, SRB assay, 48 hours exposure",15400 nM
same,PANC-1 TGI,"PANC-1; SRB assay, 48 hours exposure",1.76E−06
same,GI50,"LoVo; Homo sapiens, LoVo, 48 h, read-out: LOVO GI50, SRB assay, 48 hours exposure",102 nM
same,CC50,"LoVo; Homo sapiens, LoVo, 48 h, read-out: LOVO LC50, SRB assay, 48 hours exposure",22100 nM
same,LOVO TGI,"LoVo; SRB assay, 48 hours exposure",2.54E−07
same,GI50,"K-562; Homo sapiens, K562, 48 h, read-out: K-562 GI50, SRB assay, 48 hours exposure",727 nM
same,CC50,"K-562; Homo sapiens, K562, 48 h, read-out: K-562 LC50, SRB assay, 48 hours exposure",24600 nM
same,K-562 TGI,"K-562; SRB assay, 48 hours exposure",2.20E−06
same,GI50,"DU-145; Homo sapiens, DU-145, 48 h, read-out: DU-145 GI50, SRB assay, 48 hours exposure",95.2 nM
same,CC50,"DU-145; Homo sapiens, DU-145, 48 h, read-out: DU-145 LC50, SRB assay, 48 hours exposure",5300 nM
same,DU-145 TGI,"DU-145; SRB assay, 48 hours exposure",2.46E−07
same,GI50,"HT-29; Homo sapiens, HT-29, 48 h, read-out: HT-29 GI50, SRB assay, 48 hours exposure",117 nM
same,CC50,"HT-29; Homo sapiens, HT-29, 48 h, read-out: HT-29 LC50, SRB assay, 48 hours exposure",11300 nM
same,HT-29 TGI,"HT-29; SRB assay, 48 hours exposure",4.98E−07
same,GI50,"IGROV-ET; Homo sapiens, 48 h, read-out: IGROV-ET GI50, SRB assay, 48 hours exposure",129 nM
same,CC50,"IGROV-ET; Homo sapiens, 48 h, read-out: IGROV-ET LC50, SRB assay, 48 hours exposure",22900 nM
same,IGROV-ET TGI,"IGROV-ET; SRB assay, 48 hours exposure",3.42E−07
same,GI50,"LoVo-Dox; Homo sapiens, 48 h, read-out: LOVO-DOX GI50, SRB assay, 48 hours exposure",101 nM
same,CC50,"LoVo-Dox; Homo sapiens, 48 h, read-out: LOVO-DOX LC50, SRB assay, 48 hours exposure",36100 nM
same,LOVO-DOX TGI,"LoVo-Dox; SRB assay, 48 hours exposure",2.96E−07
same,GI50,"IGROV-1; Homo sapiens, IGROV-1, 48 h, read-out: IGROV GI50, SRB assay, 48 hours exposure",80.8 nM
same,CC50,"IGROV-1; Homo sapiens, IGROV-1, 48 h, read-out: IGROV LC50, SRB assay, 48 hours exposure",1320 nM
same,IGROV TGI,"IGROV-1; SRB assay, 48 hours exposure",8.10E−08
same,GI50,"A-549; Homo sapiens, A549, 48 h, read-out: A-549 GI50, SRB assay, 48 hours exposure",63.8 nM
same,CC50,"A-549; Homo sapiens, A549, 48 h, read-out: A-549 LC50, SRB assay, 48 hours exposure",12200 nM
same,A-549 TGI,"A-549; SRB assay, 48 hours exposure",2.62E−07
same,GI50,"SK-BR-3; read-out: SK-BR-3 GI50, SRB assay, 48 hours exposure",73.6 nM
same,CC50,"SK-BR-3; read-out: SK-BR-3 LC50, SRB assay, 48 hours exposure",345 nM
same,SK-BR-3 TGI,"SK-BR-3; SRB assay, 48 hours exposure",1.59E−07
same,GI50,"HeLa-APL; read-out: HELA-APL GI50, SRB assay, 48 hours exposure",66 nM
same,CC50,"HeLa-APL; read-out: HELA-APL LC50, SRB assay, 48 hours exposure",318 nM
same,HELA-APL TGI,"HeLa-APL; SRB assay, 48 hours exposure",1.45E−07
same,GI50,"HeLa; read-out: HELA GI50, SRB assay, 48 hours exposure",81.1 nM
same,HELA TGI,"HeLa; SRB assay, 48 hours exposure",1.60E−07
same,GI50,"LNCaP; Homo sapiens, LNCaP, 48 h, read-out: LN-caP GI50, SRB assay, 48 hours exposure",64.2 nM
same,CC50,"LNCaP; Homo sapiens, LNCaP, 48 h, read-out: LN-caP LC50, SRB assay, 48 hours exposure",272 nM
same,LN-caP TGI,"LNCaP; SRB assay, 48 hours exposure",1.32E−07
same,GI50,"SK-MEL-28; Homo sapiens, SK-MEL-28, 48 h, read-out: MEL-28 GI50, SRB assay, 48 hours exposure",69.2 nM
same,CC50,"SK-MEL-28; Homo sapiens, SK-MEL-28, 48 h, read-out: MEL-28 LC50, SRB assay, 48 hours exposure",321 nM
same,MEL-28 TGI,"SK-MEL-28; SRB assay, 48 hours exposure",1.49E−07
